Test results: PubChem BioAssay (NCI)
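Five compound concentrations were applied to cells in 96-well plates for 48 hours; endpoints were derived by simple linear interpolation of the resulting dose-response curve. Definition used: TGI = concentration required for complete inhibition of growth.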

Assays:
Assay in all cases: inhibition of tumour cell growth, NCI panel, 48 h
[1] = tested on: DLD-1 colon
[2] = tested on: XF 498 CNS
[3] = tested on: MALME-3M melanoma
[4] = tested on: M14 melanoma
[5] = tested on: OVCAR-8 ovarian
[6] = tested on: LXFL 529 NSCLC
[7] = tested on: M19-MEL melanoma
[8] = tested on: SNB-78 CNS
[9] = tested on: SW-620 colon
[10] = tested on: HCC-2998 colon
[11] = tested on: DMS 273 small cell lung
[12] = tested on: OVCAR-4 ovarian
[13] = tested on: HCT-116 colon
[14] = tested on: DMS 114 small cell lung
[15] = tested on: RXF-631 renal
[16] = tested on: RPMI-8226 leukemia
[17] = tested on: MDA-MB-231 breast
[18] = tested on: A498 renal
[19] = tested on: DU-145 prostate
[20] = tested on: T-47D breast

SMILES | TGI [1] [µM] | TGI [2] [µM] | TGI [3] [µM] | TGI [4] [µM] | TGI [5] [µM] | TGI [6] [µM] | TGI [7] [µM] | TGI [8] [µM] | TGI [9] [µM] | TGI [10] [µM] | TGI [11] [µM] | TGI [12] [µM] | TGI [13] [µM] | TGI [14] [µM] | TGI [15] [µM] | TGI [16] [µM] | TGI [17] [µM] | TGI [18] [µM] | TGI [19] [µM] | TGI [20] [µM]
CC1=CC[C@H](C)C(C)(C)C1/C=C/C(C)=C/CC[C@@]1(CO)[C@H](CCCO)/C(=C(/C)C=O)CC[C@]1(C)O (stereo partly drawn) | 15.1 | 19.9 | 16.9 | 12.3 | 32.9 | 20.2 | 53.3 | 27.5 | 12.5 | 4.41 | 13.9 |  |  |  |  |  |  |  |  | 
COc1cccc(NC(=O)N/C(=C/c2ccc(N(CCC#N)CCC#N)cc2)NC(=O)c2cc([N+](=O)[O-])ccc2Cl)c1 | > 100 | > 100 |  |  | > 100 | > 100 | > 100 | > 100 |  |  | > 100 | > 100 | > 100 | > 100 | > 100 | > 100 |  |  |  | 
Cc1cc(S(N)(=O)=O)c(S/C(=N\Nc2ccc([N+](=O)[O-])cc2)c2ccc(Cl)cc2)cc1Cl |  |  | 4.31 | > 100 |  |  |  |  | > 100 |  |  | 4.48 | > 100 |  |  | 28.3 | 8.27 | 21.8 | 5.51 | > 100
